Reference: patent US20230167127A1, “COMPOUNDS AND THEIR USE IN THE TREATMENT OF BACTERIAL INFECTION” (Hoffmann-La Roche Inc., priority 2020, published 2023)

tested on: Escherichia coli ATCC 25922; assay: 50% growth inhibitory concentration (IC50) determination, Iso-Sensitest broth dilution; format: cell-based; conditions: Escherichia coli, ATCC25922, 16 h, strain Escherichia coli ATCC 25922; 10-point broth dilution, optical density at 600 nm over 16 h; read-out: Escherichia coli growth inhibition IC50
Outline: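 Growth was tracked as optical density at 600 nm every 20 minutes for 16 h at 35±2° C. Compounds from DMSO stocks were serially diluted twofold over 10 points (e.g. 50–0.097 μM final) in Iso-Sensitest broth. Inhibition computed in log-phase growth to give IC50.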

Row | SMILES | IC50 [nM]
1 | O=C1COc2ccc(N3CC(CCNCC4Cc5cccc(Cl)c5C4)OC3=O)nc2N1 (stereo not shown) [Example 1, 6-[5-[2-[(4-Chloro-2,3-dihydro-1H-inden-2-yl)methylamino]ethyl]-2-oxo-1,3-oxazolidin-3-yl]-4H-pyrido[3,2-b][1,4]oxazin-3-one; formic acid] | < 97.7
2 | Cc1nccc2c1CC(CNCCC1CN(c3cnc4c(n3)NC(=O)CO4)C(=O)O1)C2 (stereo not shown) [Example 279, 6-[5-[2-[(1-methyl-6,7-dihydro-5H-cyclopenta[c]pyridin-6-yl)methylamino]ethyl]-2-oxo-1,3-oxazolidin-3-yl]-4H-pyrazino [2,3-b][1,4]oxazin-3-one; formic acid] | < 97.7
3 | N#Cc1cccc2c1CC(CNCCC1CN(c3cnc4c(c3)NC(=O)CO4)C(=O)O1)C2 (stereo not shown) [Example 46, 2-[[2-[2-oxo-3-(2-oxo-1H-pyrido[2,3-b][1,4]oxazin-7-yl)-1,3-oxazolidin-5-yl]ethylamino]methyl]-2,3-dihydro-1H-indene-4-carbonitrile] | 356
4 | CNC(=O)COc1cc(C#N)c2c(c1)CC(CNCCC1CN(c3ccc4c(n3)NC(=O)CO4)C(=O)O1)C2 (stereo not shown) [Example 107, 2-[[7-cyano-2-[[2-[2-oxo-3-(3-oxo-4H-pyrido[3,2-b][1,4]oxazin-6-yl)-1,3-oxazolidin-5-yl]ethylamino]methyl]-2,3-dihydro-1H-inden-5-yl]oxy]-N-methylacetamide] | 235
5 | Cc1ncc(F)c2c1CC(CNCCc1nn(-c3ccc4c(n3)NC(=O)CO4)c(=O)o1)C2 (stereo not shown) [Example 68, 6-[5-[2-[(4-fluoro-1-methyl-6,7-dihydro-5H-cyclopenta[c]pyridin-6-yl)methylamino]ethyl]-2-oxo-1,3,4-oxadiazol-3-yl]-4H-pyrido[3,2-b][1,4]oxazin-3-one] | 175
6 | N#Cc1cccc2c1CC(N[C@H]1CC[C@H](C3CN(c4ccc5c(n4)NC(=O)CO5)C(=O)O3)CC1)C2 (stereo partly drawn) [Example 34, 2-[[trans-4-[2-oxo-3-(3-oxo-4H-pyrido[3,2-b][1,4]oxazin-6-yl)-1,3-oxazolidin-5-yl]cyclohexyl]amino]-2,3-dihydro-1H-indene-4-carbonitrile; formic acid] | 1660
7 | Cc1nc(C)c2c(c1F)CC(CNCCC1CN(c3cnc4c(n3)NC(=O)CO4)C(=O)O1)C2 (stereo not shown) [Example 352, 6-[5-[2-[(4-fluoro-1,3-dimethyl-6,7-dihydro-5H-cyclopenta[c]pyridin-6-yl)methylamino]ethyl]-2-oxo-1,3-oxazolidin-3-yl]-4H-pyrazino[2,3-b][1,4]oxazin-3-one; formic acid] | < 97.7
8 | NC1(COc2ncc3c(c2Cl)CC(CNCCC2CN(c4ccc5c(n4)NC(=O)CO5)C(=O)O2)C3)CC1 (stereo not shown) [Example 181, 6-[5-[2-[[3-[(1-aminocyclopropyl)methoxy]-4-chloro-6,7-dihydro-5H-cyclopenta[c]pyridin-6-yl]methylamino]ethyl]-2-oxo-1,3-oxazolidin-3-yl]-4H-pyrido[3,2-b][1,4]oxazin-3-one] | < 97.7
9 | O=C1COc2ncc(N3CC(CCNCC4Cc5ncc(F)c(Cl)c5C4)OC3=O)nc2N1 (stereo not shown) [Example 319, 6-[5-[2-[(4-chloro-3-fluoro-6,7-dihydro-5H-cyclopenta[b]pyridin-6-yl)methylamino]ethyl]-2-oxo-1,3-oxazolidin-3-yl]-4H-pyrazino[2,3-b][1,4]oxazin-3-one; formic acid] | < 97.7
10 | N#CCOc1cc(F)c2c(c1)CC(CNCCC1CN(c3ccc4c(n3)NC(=O)CO4)C(=O)O1)C2 (stereo not shown) [Example 73, 2-[[7-fluoro-2-[[2-[2-oxo-3-(3-oxo-4H-pyrido[3,2-b][1,4]oxazin-6-yl)-1,3-oxazolidin-5-yl]ethylamino]methyl]-2,3-dihydro-1H-inden-5-yl]oxy]acetonitrile; formic acid] | < 97.7
11 | CC(=O)N1CC(Oc2cc(F)c3c(c2)CC(CNCCC2CN(c4cnc5c(n4)NC(=O)CO5)C(=O)O2)C3)C1 (stereo not shown) [Example 354, 6-[5-[2-[[6-(1-acetylazetidin-3-yl)oxy-4-fluoro-2,3-dihydro-1H-inden-2-yl]methylamino]ethyl]-2-oxo-1,3-oxazolidin-3-yl]-4H-pyrazino[2,3-b][1,4]oxazin-3-one; formic acid] | 392
12 | N[C@H]1c2cccc(Cl)c2C[C@@H]1CNCC[C@H]1CN(c2cnc3c(n2)NC(=O)CO3)C(=O)O1 [Example 401, 6-[(5S)-5-[2-[[(1R,2R)-1-amino-4-chloro-2,3-dihydro-1H-inden-2-yl]methylamino]ethyl]-2-oxo-1,3-oxazolidin-3-yl]-4H-pyrazino[2,3-b][1,4]oxazin-3-one] | < 97.7
13 | Cc1cnc(C)c2c1CC(CNCCC1CN(c3ccc4c(n3)NC(=O)CO4)C(=O)O1)C2 (stereo not shown) [Example 98, 6-[5-[2-[(1,4-dimethyl-6,7-dihydro-5H-cyclopenta[c]pyridin-6-yl)methylamino]ethyl]-2-oxo-1,3-oxazolidin-3-yl]-4H-pyrido[3,2-b][1,4]oxazin-3-one] | < 97.7
14 | Cc1ncc(Cl)c2c1CC(CNCCC1CN(c3cnc4c(n3)NC(=O)CO4)C(=O)O1)C2N (racemic) [Example 263, 6-[2-oxo-5-[2-[[rac-5,6-trans-5-amino-4-chloro-1-methyl-6,7-dihydro-5H-cyclopenta[c]pyridin-6-yl]methylamino]ethyl]-1,3-oxazolidin-3-yl]-4H-pyrazino[2,3-b][1,4]oxazin-3-one] | 127
15 | O=C1COc2ccc(N3CC(CCNCC4Cc5c(Cl)cccc5C4O)OC3=O)nc2N1 (racemic) [Example 230, 6-[2-Oxo-5-[2-[[rac-1,2-trans-4-chloro-1-hydroxy-2,3-dihydro-1H-inden-2-yl]methylamino]ethyl]-1,3-oxazolidin-3-yl]-4H-pyrido[3,2-b][1,4]oxazin-3-one] | < 97.7
16 | O=C1COc2ncc(N3CC(CCNCC4Cc5cc(OCC(=O)N6CCC6)cc(F)c5C4)OC3=O)nc2N1 (stereo not shown) [Example 307, 6-[5-[2-[[6-[2-(azetidin-1-yl)-2-oxoethoxy]-4-fluoro-2,3-dihydro-1H-inden-2-yl]methylamino]ethyl]-2-oxo-1,3-oxazolidin-3-yl]-4H-pyrazino[2,3-b][1,4]oxazin-3-one; formic acid] | 359

The next lines start with the values.

Row | IC50 [nM] | SMILES
17 | 1160 | NC1CC(NCC2Cc3ccnc(Cl)c3C2)CCC12CN(c1ccc3c(n1)NC(=O)CO3)C(=O)O2 (racemic) [Example 206, 6-[rac-5,6-cis-5,8-trans-6-amino-8-[(1-chloro-6,7-dihydro-5H-cyclopenta[c]pyridin-6-yl)methylamino]-2-oxo-1-oxa-3-azaspiro[4.5]decan-3-yl]-4H-pyrido[3,2-b][1,4]oxazin-3-one]
18 | < 97.7 | CC(C)(N)COc1cc(C#N)c2c(c1)CC(CN1CCC3(CC1)CN(c1cnc4c(n1)NC(=O)CO4)C(=O)O3)C2 (stereo not shown) [Example 407, 6-(2-amino-2-methylpropoxy)-2-[[2-oxo-3-(3-oxo-4H-pyrazino[2,3-b][1,4]oxazin-6-yl)-1-oxa-3,8-diazaspiro[4.5]decan-8-yl]methyl]-2,3-dihydro-1H-indene-4-carbonitrile]
19 | < 97.7 | CCn1cc(C(=O)O)c(=O)c2cc(F)c3c(c21)CC(CNCCC1CN(c2ccc4c(n2)NC(=O)CO4)C(=O)O1)C3 (stereo not shown) [Example 239, 1-Ethyl-6-fluoro-4-oxo-8-[[2-[2-oxo-3-(3-oxo-4H-pyrido[3,2-b][1,4]oxazin-6-yl)-1,3-oxazolidin-5-yl]ethylamino]methyl]-8,9-dihydro-7H-cyclopenta[h]quinoline-3-carboxylic acid]
20 | 871 | Cc1nc(OCC2CNC(=O)C2)c(C)c2c1CC(CNCCC1CN(c3ccc4c(n3)NC(=O)CO4)C(=O)O1)C2 (stereo not shown) [Example 102, 6-[5-[2-[[1,4-dimethyl-3-[(5-oxopyrrolidin-3-yl)methoxy]-6,7-dihydro-5H-cyclopenta[c]pyridin-6-yl]methylamino]ethyl]-2-oxo-1,3-oxazolidin-3-yl]-4H-pyrido[3,2-b][1,4]oxazin-3-one]
21 | < 97.7 | O=C1COc2ccc(N3CC(CCNCC4Cc5cc(OC6CNC6)cc(F)c5C4)OC3=O)nc2N1 (stereo not shown) [Example 150, 6-[5-[2-[[6-(azetidin-3-yloxy)-4-fluoro-2,3-dihydro-1H-inden-2-yl]methylamino]ethyl]-2-oxo-1,3-oxazolidin-3-yl]-4H-pyrido[3,2-b][1,4]oxazin-3-one]
22 | 393 | CN(C)C(=O)COc1cc(F)c2c(c1)CC(CNCCC1CN(c3ccc4c(n3)NC(=O)CO4)C(=O)O1)C2 (stereo not shown) [Example 77, 2-[[7-fluoro-2-[[2-[2-oxo-3-(3-oxo-4H-pyrido[3,2-b][1,4]oxazin-6-yl)-1,3-oxazolidin-5-yl]ethylamino]methyl]-2,3-dihydro-1H-inden-5-yl]oxy]-N,N-dimethylacetamide]
23 | < 97.7 | NC1(COc2cc(F)c3c(c2)CC(CNCCC2CN(c4cnc5c(n4)NC(=O)CO5)C(=O)O2)C3)CC1 (stereo not shown) [Example 161, 6-[5-[2-[[6-[(1-aminocyclopropyl)methoxy]-4-fluoro-2,3-dihydro-1H-inden-2-yl]methylamino]ethyl]-2-oxo-1,3-oxazolidin-3-yl]-4H-pyrazino[2,3-b][1,4]oxazin-3-one]
24 | < 97.7 | NC1c2cccc(Cl)c2CC1CNCCC1CN(c2ccc3c(n2)NC(=O)CS3)C(=O)O1 (racemic) [Example 246, 5-[2-[(rac-1,2-trans-1-amino-4-chloro-2,3-dihydro-1H-inden-2-yl)methylamino]ethyl]-3-(3-oxo-4H-pyrido[3,2-b][1,4]thiazin-6-yl)-1,3-oxazolidin-2-one]

same assay, conditions: strain Escherichia coli ATCC 25922; 10-point broth dilution, optical density at 600 nm over 16 h; read-out: Escherichia coli growth inhibition IC50

Row | IC50 [nM] | SMILES
25 | 152 | N#Cc1cccc2c1CC(NCC(O)CC1CN(c3cnc4c(n3)NC(=O)CO4)C(=O)O1)C2 (single isomer, unassigned; isomer b) [Example 82, 2-[[2-hydroxy-3-[2-oxo-3-(3-oxo-4H-pyrazino[2,3-b][1,4]oxazin-6-yl)-1,3-oxazolidin-5-yl]propyl]amino]-2,3-dihydro-1H-indene-4-carbonitrile, Isomer B; formic acid]
